{"source": "patent US11919858B2", "about": "“Aminonapthoquinone compounds and pharmaceutical composition for blocking ubiquitination-proteasome system in diseases” (Calgent Biotechnology Co., Ltd., priority 2015, dated 2024)", "key": {"[1]": {"test_system": "IL-6 production in human rheumatoid arthritis fibroblast-like synoviocyte cells", "experiment": "IL-6 production in RAFLS cells (ELISA)", "assay_type": "cell-based", "details": "RA-FLS, 24 h", "protocol": "Cell culture. Human rheumatoid arthritis fibroblast-like synoviocytes (RAFLS) from Cell Application Inc. (San Diego, CA, USA) were grown in synoviocyte growth medium from the same supplier.\nIL-6 Determination. RA-FLS (2.5×10^4) was treated with various concentrations of MPT0L056 for 24 h, then the medium was collected and assayed for IL-6 using commercial ELISA kit."}, "[2]": {"test_system": "HCT116 human colorectal adenocarcinoma", "details": "for Logrank Significance: compared to Group 1", "protocol": "MPT0L056 was used to evaluate for activity against the HCT116 human colorectal adenocarcinoma.\nHowever, MPT0E028 was administered orally (p.o.) in 1.0% CMC and 0.5% Tween 80 and given dose at 25 mg/kg daily to end schedule.\nEach animal was euthanized when the tumors reached the predetermined endpoint size of 1,000 mm^3. The time to endpoint (TTE) for each mouse was calculated by the following equation:\n[formula] where TTE is expressed in days, endpoint volume is in mm^3, b is the intercept, and m is the slope of the line obtained by linear regression of a log-transformed tumor growth data set. The data set is comprised of the first observation that exceeded the study endpoint volume and the three consecutive observations that immediately preceded the attainment of the endpoint volume. The calculated TTE is usually less than the day on which an animal is euthanized for tumor size. […] An animal classified as having died from treatment-related (TR) causes or non-treatment-related metastasis (NTRm) causes was assigned a TTE value equal to the day of death. An animal classified as having died from non-treatment-related (NTR) causes was excluded from TTE calculations.\nTreatment efficacy was determined from tumor growth delay (TGD), which is defined as the increase in the median TTE for a treatment group compared to the control group: TGD=T−C, expressed in days, or as a percentage of the median TTE of the control group:\n[formula] where: • T=median TTE for a treatment group, • C=median TTE for control Group 1.\nTreatment efficacy was also determined from the tumor volumes of animals remaining in the study on the last day, and from the number of regression responses. The MTV(n) is defined as the median tumor volume on D59 in the number of animals remaining, n, whose tumors have not attained the endpoint volume.\nTreatment may cause a partial regression (PR) or a complete regression (CR) of the tumor in an animal. […] An animal with a CR at the termination of a study is additionally classified as a tumor-free survivor (TFS).\nAnimals were weighed daily for the first five days, then twice weekly until the completion of the study. The mice were examined frequently for overt signs of any adverse, drug-related side effects. Acceptable toxicity for the MTD of cancer drugs is defined as a group mean BW loss of 20% or less during the test, and not more than one TR death among ten animals. A death is classified as TR if there is evidence of treatment side effects from clinical signs and/or necropsy or from unknown causes during dosing period or within 10 days of the last dose. A death is classified as NTR if there is no evidence that the death was related to treatment side effects.\nThe logrank test was used to determine the statistical significance of the difference between the TTE values of two groups, except any NTR deaths. Statistical and graphical analyses were performed with Prism 3.03 (GraphPad) for Windows. The two-tailed statistical analyses were conducted at P=0.05. Kaplan-Meier plots show the percentage of animals remaining in the study versus time. The Kaplan-Meier plots use the same data set as the log rank test. The tumor growth curves show the group median tumor volume, on a log scale as a function of time."}, "[3]": {"biological_target": "JNK3 (Homo sapiens, UniProt P53779)", "sequence (P53779 whole entry, species assumed)": "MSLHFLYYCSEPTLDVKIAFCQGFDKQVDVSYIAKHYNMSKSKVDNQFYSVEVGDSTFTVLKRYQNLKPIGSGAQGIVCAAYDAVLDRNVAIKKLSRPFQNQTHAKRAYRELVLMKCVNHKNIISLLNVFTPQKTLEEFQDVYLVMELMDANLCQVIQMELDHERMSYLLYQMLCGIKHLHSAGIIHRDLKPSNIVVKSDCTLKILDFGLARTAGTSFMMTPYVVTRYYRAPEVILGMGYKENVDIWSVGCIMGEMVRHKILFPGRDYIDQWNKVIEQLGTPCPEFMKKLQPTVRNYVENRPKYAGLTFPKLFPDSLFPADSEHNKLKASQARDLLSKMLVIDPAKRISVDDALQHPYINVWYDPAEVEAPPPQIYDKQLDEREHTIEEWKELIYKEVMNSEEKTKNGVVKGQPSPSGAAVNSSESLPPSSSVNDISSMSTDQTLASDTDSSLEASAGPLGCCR", "experiment": "Protein kinase assay (Kinome assay)", "assay_type": "binding", "from_the_text": "(§1) The compounds of the invention were subjected to protein kinase assay."}, "[4]": {"biological_target": "PCTK1 (Homo sapiens, UniProt Q00536)", "sequence (Q00536 whole entry, species assumed)": "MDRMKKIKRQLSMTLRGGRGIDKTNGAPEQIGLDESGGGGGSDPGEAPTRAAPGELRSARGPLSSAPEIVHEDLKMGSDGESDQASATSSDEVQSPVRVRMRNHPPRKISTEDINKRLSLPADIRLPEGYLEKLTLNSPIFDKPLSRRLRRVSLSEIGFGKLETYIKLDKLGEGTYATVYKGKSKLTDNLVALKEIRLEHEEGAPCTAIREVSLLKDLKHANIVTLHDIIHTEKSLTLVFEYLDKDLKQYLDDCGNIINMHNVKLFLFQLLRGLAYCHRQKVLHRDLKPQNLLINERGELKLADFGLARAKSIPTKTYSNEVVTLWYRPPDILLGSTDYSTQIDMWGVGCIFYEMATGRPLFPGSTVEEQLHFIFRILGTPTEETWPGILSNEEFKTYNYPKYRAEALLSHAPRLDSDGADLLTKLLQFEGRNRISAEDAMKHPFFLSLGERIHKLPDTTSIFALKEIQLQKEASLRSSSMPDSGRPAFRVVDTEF", "experiment": "Protein kinase assay (Kinome assay)", "assay_type": "binding", "from_the_text": "as §1"}, "[5]": {"biological_target": "ROCK2 (Homo sapiens, UniProt O75116)", "sequence (O75116 whole entry, species assumed)": "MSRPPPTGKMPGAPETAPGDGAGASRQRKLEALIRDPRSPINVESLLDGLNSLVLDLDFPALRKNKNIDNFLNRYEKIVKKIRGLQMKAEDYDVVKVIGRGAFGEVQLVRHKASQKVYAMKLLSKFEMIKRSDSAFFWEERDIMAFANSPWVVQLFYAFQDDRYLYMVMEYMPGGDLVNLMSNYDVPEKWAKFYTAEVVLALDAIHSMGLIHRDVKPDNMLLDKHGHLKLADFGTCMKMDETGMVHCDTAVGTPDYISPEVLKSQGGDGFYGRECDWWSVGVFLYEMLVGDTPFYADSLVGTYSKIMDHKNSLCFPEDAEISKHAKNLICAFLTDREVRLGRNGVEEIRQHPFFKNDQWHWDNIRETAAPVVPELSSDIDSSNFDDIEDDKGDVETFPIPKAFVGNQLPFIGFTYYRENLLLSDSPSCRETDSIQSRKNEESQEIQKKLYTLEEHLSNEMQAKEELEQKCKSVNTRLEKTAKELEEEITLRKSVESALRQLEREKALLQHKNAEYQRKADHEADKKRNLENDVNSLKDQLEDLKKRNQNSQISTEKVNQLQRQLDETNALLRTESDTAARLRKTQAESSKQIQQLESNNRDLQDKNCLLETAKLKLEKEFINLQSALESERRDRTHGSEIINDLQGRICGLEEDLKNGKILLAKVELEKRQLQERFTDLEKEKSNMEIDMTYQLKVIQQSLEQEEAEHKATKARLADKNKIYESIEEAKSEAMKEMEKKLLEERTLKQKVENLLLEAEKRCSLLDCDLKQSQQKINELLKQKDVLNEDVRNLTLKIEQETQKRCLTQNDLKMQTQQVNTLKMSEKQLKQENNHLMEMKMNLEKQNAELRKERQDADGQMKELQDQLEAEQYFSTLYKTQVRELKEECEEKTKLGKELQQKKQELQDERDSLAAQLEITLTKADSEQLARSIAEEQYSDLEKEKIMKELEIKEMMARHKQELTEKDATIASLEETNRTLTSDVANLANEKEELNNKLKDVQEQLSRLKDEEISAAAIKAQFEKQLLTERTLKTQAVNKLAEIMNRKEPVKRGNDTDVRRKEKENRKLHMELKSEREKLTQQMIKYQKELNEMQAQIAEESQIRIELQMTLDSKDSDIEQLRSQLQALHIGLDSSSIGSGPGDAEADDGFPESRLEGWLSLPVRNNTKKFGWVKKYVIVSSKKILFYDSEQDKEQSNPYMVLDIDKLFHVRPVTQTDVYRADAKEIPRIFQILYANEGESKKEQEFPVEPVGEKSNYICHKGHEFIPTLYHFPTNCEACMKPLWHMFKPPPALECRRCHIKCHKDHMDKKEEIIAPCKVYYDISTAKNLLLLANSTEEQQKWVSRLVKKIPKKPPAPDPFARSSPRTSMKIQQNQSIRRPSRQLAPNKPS", "experiment": "Protein kinase assay (Kinome assay)", "assay_type": "binding", "from_the_text": "as §1"}, "[6]": {"biological_target": "RIOK2 (Homo sapiens, UniProt Q9BVS4)", "sequence (Q9BVS4 whole entry, species assumed)": "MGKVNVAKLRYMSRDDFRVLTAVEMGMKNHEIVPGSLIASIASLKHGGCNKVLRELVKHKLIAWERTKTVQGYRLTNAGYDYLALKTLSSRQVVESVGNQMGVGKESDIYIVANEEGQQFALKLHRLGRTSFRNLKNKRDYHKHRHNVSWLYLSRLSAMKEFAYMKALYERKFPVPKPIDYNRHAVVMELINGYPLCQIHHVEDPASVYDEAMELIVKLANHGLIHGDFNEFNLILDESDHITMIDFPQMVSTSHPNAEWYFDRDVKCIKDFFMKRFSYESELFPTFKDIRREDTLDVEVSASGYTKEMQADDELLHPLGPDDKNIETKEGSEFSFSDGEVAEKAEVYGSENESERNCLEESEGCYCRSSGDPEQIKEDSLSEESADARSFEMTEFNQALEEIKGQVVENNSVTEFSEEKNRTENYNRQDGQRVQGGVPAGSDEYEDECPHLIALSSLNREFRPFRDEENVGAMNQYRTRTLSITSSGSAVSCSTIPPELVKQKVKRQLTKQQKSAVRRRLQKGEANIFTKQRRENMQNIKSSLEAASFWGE", "experiment": "Protein kinase assay (Kinome assay)", "assay_type": "binding", "from_the_text": "as §1"}, "[7]": {"biological_target": "JNK1 (Homo sapiens, UniProt P45983)", "sequence (P45983 whole entry, species assumed)": "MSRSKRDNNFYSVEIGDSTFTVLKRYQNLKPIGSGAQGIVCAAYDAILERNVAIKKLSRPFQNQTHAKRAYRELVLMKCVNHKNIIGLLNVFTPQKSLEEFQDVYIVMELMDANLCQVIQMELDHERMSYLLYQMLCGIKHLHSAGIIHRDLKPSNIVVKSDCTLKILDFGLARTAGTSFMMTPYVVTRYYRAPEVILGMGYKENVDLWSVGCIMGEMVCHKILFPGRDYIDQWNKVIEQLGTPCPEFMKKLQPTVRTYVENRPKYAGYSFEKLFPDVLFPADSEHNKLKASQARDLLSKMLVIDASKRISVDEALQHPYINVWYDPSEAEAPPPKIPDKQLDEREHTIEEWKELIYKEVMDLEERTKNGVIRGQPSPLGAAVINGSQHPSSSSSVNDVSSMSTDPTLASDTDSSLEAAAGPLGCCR", "experiment": "Protein kinase assay (Kinome assay)", "assay_type": "binding", "from_the_text": "as §1"}, "[8]": {"biological_target": "CSNK1D (Homo sapiens, UniProt P48730)", "sequence (P48730 whole entry, species assumed)": "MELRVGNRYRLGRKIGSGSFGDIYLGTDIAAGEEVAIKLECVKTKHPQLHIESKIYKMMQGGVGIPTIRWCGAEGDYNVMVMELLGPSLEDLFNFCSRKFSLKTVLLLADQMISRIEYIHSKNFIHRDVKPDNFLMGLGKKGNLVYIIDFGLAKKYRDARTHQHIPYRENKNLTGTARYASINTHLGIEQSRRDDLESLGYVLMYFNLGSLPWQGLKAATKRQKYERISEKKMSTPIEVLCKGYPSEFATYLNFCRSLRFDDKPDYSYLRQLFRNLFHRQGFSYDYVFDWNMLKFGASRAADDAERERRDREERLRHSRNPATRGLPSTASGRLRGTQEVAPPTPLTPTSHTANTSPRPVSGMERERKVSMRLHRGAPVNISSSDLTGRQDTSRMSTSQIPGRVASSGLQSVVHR", "experiment": "Protein kinase assay (Kinome assay)", "assay_type": "binding", "from_the_text": "as §1"}, "[9]": {"biological_target": "DYRK1B (Homo sapiens, UniProt Q9Y463)", "sequence (Q9Y463 whole entry, species assumed)": "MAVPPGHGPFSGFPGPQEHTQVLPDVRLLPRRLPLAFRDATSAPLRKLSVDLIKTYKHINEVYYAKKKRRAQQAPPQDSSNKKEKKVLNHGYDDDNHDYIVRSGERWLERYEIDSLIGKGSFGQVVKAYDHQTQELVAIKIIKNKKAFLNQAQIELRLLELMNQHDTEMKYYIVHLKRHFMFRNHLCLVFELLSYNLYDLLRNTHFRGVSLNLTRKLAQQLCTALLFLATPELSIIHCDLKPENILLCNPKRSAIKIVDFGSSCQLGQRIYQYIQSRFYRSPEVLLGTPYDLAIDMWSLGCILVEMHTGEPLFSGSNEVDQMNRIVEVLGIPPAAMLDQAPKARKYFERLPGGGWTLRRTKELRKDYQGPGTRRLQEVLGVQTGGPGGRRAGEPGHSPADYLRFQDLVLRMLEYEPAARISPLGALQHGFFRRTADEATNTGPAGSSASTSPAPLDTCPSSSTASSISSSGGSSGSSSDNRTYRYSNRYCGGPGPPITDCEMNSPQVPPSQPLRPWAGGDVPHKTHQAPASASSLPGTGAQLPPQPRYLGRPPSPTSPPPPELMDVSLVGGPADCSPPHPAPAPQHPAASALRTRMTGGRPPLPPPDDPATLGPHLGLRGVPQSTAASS", "experiment": "Protein kinase assay (Kinome assay)", "assay_type": "binding", "from_the_text": "as §1"}, "[10]": {"biological_target": "ITCH (Homo sapiens, UniProt Q96J02)", "experiment": "Blocking of ITCH self-ubiquitination, in vitro assay", "assay_type": "biochemical", "details": "FIG. 1", "from_the_text": "MPT0L056 of the invention was used to test the blocking of ITCH self-ubiquitination. […] [Reference for in vitro assay: Scialpi F, Malatesta M, Peschiaroli A, Rossi M, Melino G, and Bernassola F. Itch self-polyubiquitylation occurs through lysine-63 linkages. Biochem Pharmacol. 2008 Dec. 1; 76(11):1515-21. Reference for in vivo assay: Chang L, Kamata H, Solinas G, Luo J L, Maeda S, Venuprasad K, Liu Y C, and Karin M. The E3 ubiquitin ligase itch couples JNK activation to TNFalpha-induced cell death by inducing c-FLIP(L) turnover. Cell. 2006 Feb. 10; 124(3):601-131"}, "[11]": {"details": "Group 1 vs 4: MPT0L056 100 mg/kg"}, "[12]": {"details": "Group 4: MPT0L056 100 mg/kg po qd to endpoint"}, "[13]": {"details": "Group 5: MPT0L056 50 mg/kg po qd to endpoint"}, "[14]": {"details": "Group 7: MPT0L056 100 mg/kg po qd + MPT0E028 25 mg/kg po qd to endpoint"}, "[15]": {"details": "Group 8: MPT0L056 50 mg/kg po qd + MPT0E028 25 mg/kg po qd to endpoint"}}, "note": "Where two headings read alike, the source gives them in different places."}
{"smiles": "O=C(Nc1ccncc1)c1ccc(CNC2=C(Cl)C(=O)c3ccccc3C2=O)cc1", "note": "[MPT0L056]", "values": [{"measurement": "IC50", "setting": "[1]", "result": 7260, "unit": "nM"}, {"measurement": "Hazard Ratio", "setting": "[2]; [11]", "result": 4.135}, {"measurement": "Median survival", "setting": "[2]; [11]", "result": 48.55}, {"measurement": "Median survival Ratio", "setting": "[2]; [11]", "result": 0.4876}, {"measurement": "Hazard Ratio", "setting": "[2]; Group 1 vs 5: 50 mg/kg", "result": 1.959}, {"measurement": "Median survival", "setting": "[2]; Group 1 vs 5: 50 mg/kg", "result": 29.95}, {"measurement": "Median survival Ratio", "setting": "[2]; Group 1 vs 5: 50 mg/kg", "result": 0.7579}, {"measurement": "Day of Max % BW Loss", "setting": "[2]; [12]", "result": 6, "unit": "days"}, {"measurement": "MTV (n) Day 59", "setting": "[2]; [12]", "result": 160, "unit": "mm^3"}, {"measurement": "Max % BW Loss", "setting": "[2]; [12]", "result": "−2.3", "unit": "%"}, {"measurement": "Median TTE", "setting": "[2]; [12]", "result": 48.5, "unit": "days"}, {"measurement": "No. of NTR", "setting": "[2]; [12]", "result": 0}, {"measurement": "No. of TR", "setting": "[2]; [12]", "result": 0}, {"measurement": "T-C", "setting": "[2]; [12]", "result": 25.8, "unit": "days"}, {"measurement": "antitumor activity (logrank analysis)", "setting": "[2]; [12]", "result": "produced significant antitumor activity"}, {"measurement": "% TGD", "setting": "[2]; Group 4: MPT0L056 100 mg/kg po qd to endpoint, 100 mg/kg", "result": 114, "unit": "%"}, {"measurement": "Logrank Significance", "setting": "[2]; [12]", "result": "** (** = P < 0.01)"}, {"measurement": "Day of Max % BW Loss", "setting": "[2]; [13]", "result": 5, "unit": "days"}, {"measurement": "MTV (n) Day 59", "setting": "[2]; [13]", "result": 975, "unit": "mm^3"}, {"measurement": "Max % BW Loss", "setting": "[2]; [13]", "result": "−3.8", "unit": "%"}, {"measurement": "Median TTE", "setting": "[2]; [13]", "result": 30.0, "unit": "days"}, {"measurement": "No. of LTTFS", "setting": "[2]; [13]", "result": 0}, {"measurement": "No. of NTR", "setting": "[2]; [13]", "result": 2}, {"measurement": "No. of TR", "setting": "[2]; [13]", "result": 0}, {"measurement": "T-C", "setting": "[2]; [13]", "result": 7.3, "unit": "days"}, {"measurement": "antitumor activity (logrank analysis)", "setting": "[2]; [13]", "result": "but not 50 mg/kg (P=0.2087), produced significant antitumor activity"}, {"measurement": "% TGD", "setting": "[2]; Group 5: MPT0L056 50 mg/kg po qd to endpoint, 50 mg/kg", "result": 32, "unit": "%"}, {"measurement": "% TGD", "setting": "[2]; [14]", "result": 50, "unit": "%"}, {"measurement": "Day of Max % BW Loss", "setting": "[2]; [14]", "result": 5, "unit": "days"}, {"measurement": "Max % BW Loss", "setting": "[2]; [14]", "result": "−8.4", "unit": "%"}, {"measurement": "Median TTE", "setting": "[2]; [14]", "result": 34.0, "unit": "days"}, {"measurement": "No. of CR", "setting": "[2]; [14]", "result": 0}, {"measurement": "No. of LTTFS", "setting": "[2]; [14]", "result": 0}, {"measurement": "No. of NTR", "setting": "[2]; [14]", "result": 0}, {"measurement": "No. of PR", "setting": "[2]; [14]", "result": 0}, {"measurement": "No. of TR", "setting": "[2]; [14]", "result": 0}, {"measurement": "T-C", "setting": "[2]; [14]", "result": 11.3, "unit": "days"}, {"measurement": "% TGD", "setting": "[2]; [15]", "result": 100, "unit": "%"}, {"measurement": "Day of Max % BW Loss", "setting": "[2]; [15]", "result": 3, "unit": "days"}, {"measurement": "Max % BW Loss", "setting": "[2]; [15]", "result": "−9.5", "unit": "%"}, {"measurement": "Median TTE", "setting": "[2]; [15]", "result": 45.3, "unit": "days"}, {"measurement": "No. of LTTFS", "setting": "[2]; [15]", "result": 0}, {"measurement": "T-C", "setting": "[2]; [15]", "result": 22.6, "unit": "days"}, {"measurement": "synergistic effect of antitumor activity (logrank analysis)", "setting": "[2]; [15]", "result": "significant synergistic effect of antitumor activity"}, {"measurement": "Logrank Significance", "setting": "[2]; [15]", "result": "** (** = P < 0.01)"}, {"measurement": "Kd", "setting": "[3]", "result": 430, "unit": "nM"}, {"measurement": "Kd", "setting": "[4]", "result": "> 10000", "unit": "nM"}, {"measurement": "Kd", "setting": "[5]", "result": 580, "unit": "nM"}, {"measurement": "Kd", "setting": "[6]", "result": 6600, "unit": "nM"}, {"measurement": "Kd", "setting": "[7]", "result": 4200, "unit": "nM"}, {"measurement": "Kd", "setting": "[8]", "result": 2000, "unit": "nM"}, {"measurement": "Kd", "setting": "[9]", "result": 1400, "unit": "nM"}, {"measurement": "blocking of ITCH self-ubiquitination (Lys-dependent)", "setting": "[10]", "result": "blocks ITCH self-ubiquitnation (Lys-dependent) efficiently"}]}
